Molecules are shown by their SMILES. Counter-ions that a name gives are not always drawn.

As a reminder, the IC50 is the point on the concentration scale where inhibition reaches its midpoint.

One assay deals with T1, rat TRPV1 (Rattus norvegicus (Rat), UniProt O35433).
T1 sequence (O35433 whole entry): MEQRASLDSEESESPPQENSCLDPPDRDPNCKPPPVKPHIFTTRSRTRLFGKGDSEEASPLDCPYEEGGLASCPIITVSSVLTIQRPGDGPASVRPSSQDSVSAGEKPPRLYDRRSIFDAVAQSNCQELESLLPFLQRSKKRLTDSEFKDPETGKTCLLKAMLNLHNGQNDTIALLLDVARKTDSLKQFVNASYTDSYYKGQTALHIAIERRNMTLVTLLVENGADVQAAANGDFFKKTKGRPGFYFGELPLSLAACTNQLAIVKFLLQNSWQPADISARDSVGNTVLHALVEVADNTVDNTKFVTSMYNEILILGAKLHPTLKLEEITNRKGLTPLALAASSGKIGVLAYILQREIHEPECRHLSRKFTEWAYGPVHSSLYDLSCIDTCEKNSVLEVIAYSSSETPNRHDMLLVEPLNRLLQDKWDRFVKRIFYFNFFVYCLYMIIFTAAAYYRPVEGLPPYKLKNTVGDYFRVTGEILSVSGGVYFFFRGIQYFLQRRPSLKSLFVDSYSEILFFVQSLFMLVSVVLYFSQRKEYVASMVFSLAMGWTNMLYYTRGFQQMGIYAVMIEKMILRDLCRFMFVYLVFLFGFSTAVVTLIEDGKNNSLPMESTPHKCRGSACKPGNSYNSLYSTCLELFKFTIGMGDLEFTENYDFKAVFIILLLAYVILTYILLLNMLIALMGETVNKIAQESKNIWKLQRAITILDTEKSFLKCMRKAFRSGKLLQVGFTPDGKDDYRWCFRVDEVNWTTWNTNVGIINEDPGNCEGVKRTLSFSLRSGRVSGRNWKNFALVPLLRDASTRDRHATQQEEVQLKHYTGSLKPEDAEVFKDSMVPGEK
Assay: not given
The note with it: read-out: Rat IC50.
`CC(C)(C(=O)O)c1ccc(Nc2nc(N3CCOCC3)nc3c2CCN(c2ncccc2C(F)(F)F)CC3)cc1` [Example 392, 2-Methyl-2-{4-[2-morpholin-4-yl-7-(3-trifluoromethyl-pyridin-2-yl)-6,7,8,9-tetrahydro-5H-pyrimido[4,5-d]azepin-4-ylamino]-phenyl}-propionic acid]: the IC50 turned out to be 1540 nM.

For another assay, the target named is T1, rat TRPV1. Kind of assay: cell-based. The note with it: Rat IC50 (μM).
The compound `CC1CCCCN1c1nc2c(c(Nc3ccc(C(F)(F)F)cc3)n1)CCN(c1ncccc1C(F)(F)F)CC2` (single isomer, unassigned) [Example 276, 2-(2S or 2R)-2-Methylpiperidin-1-yl]-N-[4-(trifluoromethyl)phenyl]-7-[3-(trifluoromethyl)pyridin-2-yl]-6,7,8,9-tetrahydro-5H-pyrimido[4,5-d]azepin-4-amine] displayed an IC50 of […]. With `CC1CCCCN1c1nc2c(c(Nc3ccc(C(F)(F)F)cc3)n1)CCN(c1ncccc1C(F)(F)F)CC2` (single isomer, unassigned) [Example 277, 2-[(2R or 2S)-2-Methylpiperidin-1-yl]-N-[4-(trifluoromethyl)phenyl]-7-[3-(trifluoromethyl)pyridin-2-yl]-6,7,8,9-tetrahydro-5H-pyrimido[4,5-d]azepin-4-amine], the concentration for half-maximal inhibition (IC50) is […]. Regarding `CC(C)c1nc2c(c(Nc3ccc(Br)cc3)n1)CCN(c1ncccc1C(F)(F)F)CC2` [Example 46, (4-Bromo-phenyl)-[2-isopropyl-7-(3-trifluoromethyl-pyridin-2-yl)-6,7,8,9-tetrahydro-5H-pyrimido[4,5-d]azepin-4-yl]-amine], 0.38 µM corresponded to half-maximal inhibition (IC50). As to `CC(C)(C)c1ccc(Nc2nc(C(C)(C)C)nc3c2CCN(c2ncccc2C(F)(F)F)CC3)cc1` [Example 138, 2-(1,1-Dimethylethyl)-N-[4-(1,1-dimethylethyl)phenyl]-7-[3-(trifluoromethyl)pyridin-2-yl]-6,7,8,9-tetrahydro-5H-pyrimido[4,5-d]azepin-4-amine], the IC50 came out at 0.03 µM. Take `Cc1nc(-c2nc3c(c(Nc4ccc(C(F)(F)F)cc4)n2)CCN(c2ncccc2C(F)(F)F)CC3)cs1` [Example 153, 2-(2-Methyl-1,3-thiazol-4-yl)-N-[4-(trifluoromethyl)phenyl]-7-[3-(trifluoromethyl)pyridin-2-yl]-6,7,8,9-tetrahydro-5H-pyrimido[4,5-d]azepin-4-amine trifluoroacetic acid salt]: the IC50 is 0.14 µM. Consider `COC(=O)c1cnc(N2CCc3nc(S(C)(=O)=O)nc(Nc4ccc(C(F)(F)F)cc4)c3CC2)c(Cl)c1` [Example 211, Methyl 5-chloro-6-[2-(methylsulfonyl)-4-{[4-(trifluoromethyl)phenyl]amino}-5,6,8,9-tetrahydro-7H-pyrimido[4,5-d]azepin-7-yl]pyridine-3-carboxylate], for which the IC50 was found to be 11.4 µM. For the compound `CC1CCCCN1c1nc2c(c(Nc3ccc(C(F)(F)F)cc3)n1)CCN(c1ncccc1C(F)(F)F)CC2` (stereo not drawn) [Example 246, 2-(2-Methylpiperidin-1-yl)-N-[4-(trifluoromethyl)phenyl]-7-[3-(trifluoromethyl)pyridin-2-yl]-6,7,8,9-tetrahydro-5H-pyrimido[4,5-d]azepin-4-amine hydrochloride salt], […] corresponded to half-maximal inhibition (IC50).

Compound `FC(F)(F)c1ccc(Nc2nc(NC3CCOC3)nc3c2CCN(c2ncccc2C(F)(F)F)CC3)cc1` (stereo not drawn) [Example 265, N^2-(Tetrahydro-furan-3-yl)-N^4-(4-trifluoromethyl-phenyl)-7-(3-trifluoromethyl-pyridin-2-yl)-6,7,8,9-tetrahydro-5H-pyrimido[4,5-d]azepine-2,4-diamine trifluoroacetic acid salt] registered an IC50 of 0.39 µM.

Values taken from patent US9422293B2 (priority 2006, dated 2016).
